Results from patent publication US20240277683A1, “COMPOUNDS” (CTXT PTY LTD, priority 2018, published 2024).
Each block holds one compound with its values, some of them ahead of it.

Legend:
[1] = target: HBO-KAT7 (Homo sapiens (Human), UniProt O95251); test: Acetyltransferase biochemical assay (AlphaScreen), KAT7; settings: 1 μM AcCoA, histone H3.1
[2] = target: TIP60-KAT5 (Homo sapiens (Human), UniProt Q92993); test: Acetyltransferase biochemical assay (AlphaScreen), KAT5; settings: 1 μM AcCoA, histone H4
TIP60-KAT5, sequence (Q92993 other isoform, or with tags, fused parts or gaps): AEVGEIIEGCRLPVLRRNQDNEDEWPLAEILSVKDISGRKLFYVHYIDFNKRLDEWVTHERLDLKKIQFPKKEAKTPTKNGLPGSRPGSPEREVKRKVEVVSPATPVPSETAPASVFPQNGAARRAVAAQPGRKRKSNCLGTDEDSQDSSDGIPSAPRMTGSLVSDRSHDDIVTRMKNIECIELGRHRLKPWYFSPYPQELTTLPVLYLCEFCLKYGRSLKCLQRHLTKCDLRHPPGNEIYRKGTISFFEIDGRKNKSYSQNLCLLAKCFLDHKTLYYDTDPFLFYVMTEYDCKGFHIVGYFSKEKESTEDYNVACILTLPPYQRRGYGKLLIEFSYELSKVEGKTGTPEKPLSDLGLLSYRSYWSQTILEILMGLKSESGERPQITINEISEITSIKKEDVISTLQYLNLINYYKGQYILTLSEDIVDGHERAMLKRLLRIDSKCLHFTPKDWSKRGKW

[3] = target: MOZ-KAT6A (Homo sapiens (Human), UniProt Q92794); test: Acetyltransferase biochemical assay (AlphaScreen), KAT6A; settings: 1 μM AcCoA, histone H3.1
MOZ-KAT6A, sequence (Q92794 other isoform, or with tags, fused parts or gaps): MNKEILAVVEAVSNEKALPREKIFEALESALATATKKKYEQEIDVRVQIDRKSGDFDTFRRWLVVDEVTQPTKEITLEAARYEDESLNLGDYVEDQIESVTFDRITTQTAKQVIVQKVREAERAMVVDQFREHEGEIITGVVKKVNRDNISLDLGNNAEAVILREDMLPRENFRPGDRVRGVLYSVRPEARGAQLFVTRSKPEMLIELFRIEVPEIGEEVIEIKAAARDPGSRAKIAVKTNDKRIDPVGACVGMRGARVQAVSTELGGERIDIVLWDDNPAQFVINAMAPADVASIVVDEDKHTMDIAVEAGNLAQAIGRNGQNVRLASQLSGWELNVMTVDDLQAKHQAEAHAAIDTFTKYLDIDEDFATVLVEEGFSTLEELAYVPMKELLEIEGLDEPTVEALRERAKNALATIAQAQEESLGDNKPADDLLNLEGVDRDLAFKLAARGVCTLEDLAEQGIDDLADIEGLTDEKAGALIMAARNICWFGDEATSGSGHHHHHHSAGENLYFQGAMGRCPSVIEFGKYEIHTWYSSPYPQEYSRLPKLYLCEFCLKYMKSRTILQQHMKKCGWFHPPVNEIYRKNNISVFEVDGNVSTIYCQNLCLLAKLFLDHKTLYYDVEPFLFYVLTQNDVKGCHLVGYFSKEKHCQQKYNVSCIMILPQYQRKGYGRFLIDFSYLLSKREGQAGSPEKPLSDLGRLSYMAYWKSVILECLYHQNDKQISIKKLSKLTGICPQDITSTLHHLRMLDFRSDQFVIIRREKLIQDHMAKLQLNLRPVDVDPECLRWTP

[4] = target: MOF-KAT8 (Homo sapiens (Human), UniProt Q9H7Z6); type: biochemical; settings: 1 μM AcCoA, histone H4
MOF-KAT8, sequence (Q9H7Z6 177-447): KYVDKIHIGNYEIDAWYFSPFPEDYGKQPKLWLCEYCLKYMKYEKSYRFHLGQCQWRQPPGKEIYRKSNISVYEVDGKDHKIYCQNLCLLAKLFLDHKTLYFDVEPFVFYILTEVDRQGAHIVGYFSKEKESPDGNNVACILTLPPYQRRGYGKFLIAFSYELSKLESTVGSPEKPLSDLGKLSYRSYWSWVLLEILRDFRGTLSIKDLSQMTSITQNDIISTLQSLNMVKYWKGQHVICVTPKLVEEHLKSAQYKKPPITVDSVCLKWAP

[5] = tested on: acetylation of the histone H3 Lysine 14 marker in U2OS cells; test: Histone H3 Lysine 14 Acetylation Biomarker Assay; type: cell-based; settings: Homo sapiens, U2OS, 24 h
Procedure: Compounds may be tested for their ability to inhibit acetylation of the histone H3 Lysine 14 marker in the following assay:
(§1) The cell line U2OS was seeded at a density of 3,000 cells per well in 384-well optical quality tissue culture plates in RPMI medium supplemented with 10% foetal bovine serum and 10 mM Hepes. The cells were allowed to adhere for 24 hours under standard culture conditions (37 degree Celsius, 5% CO2). At the end of this period the cells were washed with serum free medium. […] Plates were washed and read on a PerkinElmer Opera HCS high content imaging platform.

[6] = tested on: acetylation of the histone H3K23 marker in U2OS cells; test: Histone H3 Lysine 23 Acetylation Biomarker Assay; type: cell-based; settings: Homo sapiens, U2OS, 24 h
Procedure: Compounds may be tested for their ability to inhibit acetylation of the histone H3K23 marker in the following assay:
The cell line U2OS was seeded at a density of 9,000 cells per well in 96 well optical quality tissue culture plates in RPMI medium and 10% foetal bovine serum, and allowed to adhere for 24 hours under standard culture conditions (37 degree Celsius, 5% CO2). At the end of this period the medium was aspirated. […] After incubation for 24 hours, the cells were fixed with 3.7% formaldehyde in PBS for 20 minutes at room temperature, washed (5×5 minutes) with phosphate buffer saline containing 0.1% Tween 20 and blocked with Odyssey blocking buffer (LI-COR, Lincoln, NE) containing 0.1% TritonX100. Anti-H3K23ac specific antibody (Abcam ab177275) in Odyssey blocking buffer containing 0.1% Tween 20 was added and incubated for 16 hours at 4 degree Celsius. […] Plates were washed as previously and read on a PerkinElmer Phenix high content imaging platform.

[7] = tested on: histone H2A.Z Lysine 7 acetylation marker in U2OS cells; test: H2A.Z Lysine 7 Acetylation Biomarker Assay; type: cell-based; settings: Homo sapiens, U2OS, 24 h
Procedure: Compounds may be tested for their ability to inhibit the histone H2A.Z Lysine 7 acetylation marker in the following assay:
as §1

HBO-KAT7, sequence (O95251 other isoform, or with tags, fused parts or gaps): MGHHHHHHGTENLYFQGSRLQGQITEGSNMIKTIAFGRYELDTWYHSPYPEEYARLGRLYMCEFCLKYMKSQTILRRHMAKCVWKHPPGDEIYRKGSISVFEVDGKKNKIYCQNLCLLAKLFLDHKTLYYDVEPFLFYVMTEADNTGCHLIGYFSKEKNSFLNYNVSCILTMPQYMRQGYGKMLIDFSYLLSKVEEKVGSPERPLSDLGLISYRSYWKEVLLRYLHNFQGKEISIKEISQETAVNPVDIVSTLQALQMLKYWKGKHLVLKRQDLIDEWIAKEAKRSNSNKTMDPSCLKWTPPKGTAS

Structure (SMILES): COC(=O)c1c(-c2ccc(OC)cc2)noc1NS(=O)(=O)c1ccc(C)c(C)c1 [Example 83, methyl 5-((3,4-dimethylphenyl)sulfonamido)-3-(4-methoxyphenyl)isoxazole-4-carboxylate]
- IC50 [1]: > 125 µM

Structure (SMILES): O=S(=O)(Nc1cc(-c2ccccc2)on1)c1cccnc1 [Example 30, N-(5-phenylisoxazol-3-yl)pyridine-3-sulfonamide]
- IC50 [2]: > 125 µM
- IC50 [1]: > 125 µM

Structure (SMILES): N#Cc1cccc(S(=O)(=O)Nc2cc(-c3ccccc3)on2)c1 [Example 46, 3-cyano-N-(5-phenylisoxazol-3-yl)benzenesulfonamide]
- IC50 [2]: > 125 µM

Structure (SMILES): O=S(=O)(Nc1cc(-c2ccccc2)on1)c1cccc(Cl)c1 [Example 35, 3-chloro-N-(5-phenylisoxazol-3-yl)benzenesulfonamide]
- IC50 [2]: > 125 µM
- IC50 [1]: > 125 µM

Structure (SMILES): COc1cccc(OC)c1S(=O)(=O)Nc1nnc(-c2ccccc2Cn2cccn2)s1 [Example 101, N-(5-(2-((1H-Pyrazol-1-yl)methyl)phenyl)-1,3,4-thiadiazol-2-yl)-2,6-dimethoxybenzenesulfonamide]
- IC50 [2]: > 125 µM
- IC50 [3]: > 125 µM

Structure (SMILES): COc1cccc(S(=O)(=O)Nc2cc(-c3ccccc3)on2)c1 [Example 36, 3-methoxy-N-(5-phenylisoxazol-3-yl)benzenesulfonamide]
- IC50 [2]: > 125 µM

- IC50 [2]: > 125 µM
- IC50 [1]: > 125 µM
Structure (SMILES): O=S(=O)(Nc1noc(-c2ccccc2)n1)c1ccccc1F [Example 68, 2-Fluoro-N-(5-phenyl-1,2,4-oxadiazol-3-yl)benzenesulfonamide]

Structure (SMILES): O=S(=O)(Nc1cc(-c2ccccc2)on1)c1ccc(C(F)(F)F)cc1 [Example 47, N-(5-phenylisoxazol-3-yl)-4-(trifluoromethyl)benzenesulfonamide]
- IC50 [2]: > 125 µM

Structure (SMILES): O=S(=O)(Nc1cc(-c2ccccc2)on1)c1ccccc1 [Example 63, N-(5-phenylisoxazol-3-yl)benzenesulfonamide]
- IC50 [4]: > 125 µM

Structure (SMILES): N#Cc1ccc(S(=O)(=O)Nc2cc(-c3ccccc3)on2)cc1 [Example 45, 4-cyano-N-(5-phenylisoxazol-3-yl)benzenesulfonamide]
- IC50 [4]: > 125 µM
- IC50 [2]: > 125 µM

- IC50 [2]: > 125 µM
Structure (SMILES): CCc1ccc(OC)c(S(=O)(=O)Nc2nnc(-c3ccc(OC)c(OC)c3)o2)c1 [Example 125, N-(5-(3,4-Dimethoxyphenyl)-1,3,4-oxadiazol-2-yl)-5-ethyl-2-methoxybenzenesulfonamide]

Structure (SMILES): COc1ccccc1-c1nnc(NS(=O)(=O)C2CCOCC2)s1 [Example 127, N-(5-(2-methoxyphenyl)-1,3,4-thiadiazol-2-yl)tetrahydro-2H-pyran-4-sulfonamide]
- IC50 [2]: > 125 µM
- IC50 [3]: > 125 µM

Structure (SMILES): COc1ccccc1-c1cc(N(C)S(=O)(=O)c2c(OC)cc(-c3ccccc3)cc2OC)no1 [Example 55, 2,6-Dimethoxy-N-[5-(2-methoxyphenyl)isoxazol-3-yl]-N-methyl-4-phenyl-benzenesulfonamide]
- IC50 [4]: > 125 µM
- IC50 [2]: > 125 µM

Structure (SMILES): COc1ccccc1-c1cc(NS(=O)(=O)c2c(OC)cccc2OC)no1 [Example 56, 2,6-Dimethoxy-N-(5-(2-methoxyphenyl)isoxazol-3-yl)benzenesulfonamide]
- IC50 [5]: 2640 nM
- IC50 [6]: 2070 nM
- IC50 [7]: 24.1 µM

Structure (SMILES): CCc1ccc(OC)c(S(=O)(=O)Nc2cc(-c3ccncc3)no2)c1 [Example 85, 5-Ethyl-2-methoxy-N-(3-(pyridin-4-yl)isoxazol-5-yl)benzenesulfonamide]
- IC50 [2]: > 125 µM

Structure (SMILES): COc1ccc(OC)c(-c2cc(NS(=O)(=O)c3c(OC)cccc3OC)no2)c1 [Example 7, N-(5-(2,5-Dimethoxyphenyl)isoxazol-3-yl)-2,6-dimethoxybenzenesulfonamide]
- IC50 [5]: 496 nM
- IC50 [6]: 49.1 nM
- IC50 [7]: 2.19 µM
